Experimental data as given in ChEMBL document CHEMBL4229455, “Synthesis and anticancer activity of novel bisindolylhydroxymaleimide derivatives with potent GSK-3 kinase inhibition” (Bioorg Med Chem, 2018).

What was measured:
Format in all cases: functional
HOP-62 = experiment: Cytotoxicity against human HOP62 cells assessed as cell growth at 0.01 uM after 48 hrs by SRB assay relative to control; settings: HOP-62, 48 h, read-out: Activity
HCC 2998 [1] = experiment: Cytotoxicity against human HCC2998 cells assessed as cell growth at 0.01 uM after 48 hrs by SRB assay relative to control; settings: HCC 2998, 48 h, read-out: Activity
SK-OV-3 = experiment: Cytotoxicity against human SKOV3 cells assessed as cell growth at 0.01 uM after 48 hrs by SRB assay relative to control; settings: SK-OV-3, 48 h, read-out: Activity
A549 = experiment: Cytotoxicity against human A549 cells assessed as cell growth at 0.1 uM after 48 hrs by SRB assay relative to control; settings: A549, 48 h, read-out: Activity
NCI-H23 [2] = experiment: Cytotoxicity against human NCI-H23 cells assessed as cell growth at 0.1 uM after 48 hrs by SRB assay relative to control; settings: NCI-H23, 48 h, read-out: Activity
UACC-257 [3] = experiment: Cytotoxicity against human UACC257 cells assessed as cell growth at 0.1 uM after 48 hrs by SRB assay relative to control; settings: UACC-257, 48 h, read-out: Activity
UACC-62 = experiment: Cytotoxicity against human UACC62 cells assessed as cell growth at 0.1 uM after 48 hrs by SRB assay relative to control; settings: UACC-62, 48 h, read-out: Activity
RXF 393 [4] = experiment: Cytotoxicity against human RXF393 cells assessed as cell growth at 0.1 uM after 48 hrs by SRB assay relative to control; settings: RXF 393, 48 h, read-out: Activity
SN12C [5] = experiment: Cytotoxicity against human SN12C cells assessed as cell growth at 0.1 uM after 48 hrs by SRB assay relative to control; settings: read-out: Activity
UO-31 [6] = experiment: Cytotoxicity against human UO31 cells assessed as cell growth at 0.1 uM after 48 hrs by SRB assay relative to control; settings: UO-31, 48 h, read-out: Activity
BT-549 = experiment: Cytotoxicity against human BT549 cells assessed as cell growth at 0.1 uM after 48 hrs by SRB assay relative to control; settings: BT-549, 48 h, read-out: Activity
NCI-H522 = experiment: Cytotoxicity against human NCI-H522 cells assessed as cell growth at 1 uM after 48 hrs by SRB assay relative to control; settings: NCI-H522, 48 h, read-out: Activity
KM12 = experiment: Cytotoxicity against human KM12 cells assessed as cell growth at 1 uM after 48 hrs by SRB assay relative to control; settings: KM12, 48 h, read-out: Activity
SF-268 = experiment: Cytotoxicity against human SF268 cells assessed as cell growth at 1 uM after 48 hrs by SRB assay relative to control; settings: SF-268, 48 h, read-out: Activity
SF-539 = experiment: Cytotoxicity against human SF539 cells assessed as cell growth at 1 uM after 48 hrs by SRB assay relative to control; settings: SF-539, 48 h, read-out: Activity
SNB-75 = experiment: Cytotoxicity against human SNB75 cells assessed as cell growth at 1 uM after 48 hrs by SRB assay relative to control; settings: SNB-75, 48 h, read-out: Activity
LOX IMVI = experiment: Cytotoxicity against human LOXIMVI cells assessed as cell growth at 1 uM after 48 hrs by SRB assay relative to control; settings: read-out: Activity
M14 = experiment: Cytotoxicity against human M14 cells assessed as cell growth at 1 uM after 48 hrs by SRB assay relative to control; settings: M14, 48 h, read-out: Activity
MDA-MB-435 = experiment: Cytotoxicity against human MDA-MB-435 cells assessed as cell growth at 1 uM after 48 hrs by SRB assay relative to control; settings: MDA-MB-435, 48 h, read-out: Activity
UACC-257 [7] = experiment: Cytotoxicity against human UACC257 cells assessed as cell growth at 1 uM after 48 hrs by SRB assay relative to control; settings: UACC-257, 48 h, read-out: Activity
OVCAR-5 [8] = experiment: Cytotoxicity against human OVCAR5 cells assessed as cell growth at 1 uM after 48 hrs by SRB assay relative to control; settings: OVCAR-5, 48 h, read-out: Activity
786-0 = experiment: Cytotoxicity against human 786-O cells assessed as cell growth at 1 uM after 48 hrs by SRB assay relative to control; settings: 786-0, 48 h, read-out: Activity
ACHN = experiment: Cytotoxicity against human ACHN cells assessed as cell growth at 1 uM after 48 hrs by SRB assay relative to control; settings: read-out: Activity
RXF 393 [9] = experiment: Cytotoxicity against human RXF393 cells assessed as cell growth at 1 uM after 48 hrs by SRB assay relative to control; settings: RXF 393, 48 h, read-out: Activity
SN12C [10] = experiment: Cytotoxicity against human SN12C cells assessed as cell growth at 1 uM after 48 hrs by SRB assay relative to control; settings: read-out: Activity
TK-10 = experiment: Cytotoxicity against human TK10 cells assessed as cell growth at 1 uM after 48 hrs by SRB assay relative to control; settings: TK-10, 48 h, read-out: Activity
UO-31 [11] = experiment: Cytotoxicity against human UO31 cells assessed as cell growth at 1 uM after 48 hrs by SRB assay relative to control; settings: UO-31, 48 h, read-out: Activity
MDA-MB-231 = experiment: Cytotoxicity against human MDA-MB-231 cells assessed as cell growth at 1 uM after 48 hrs by SRB assay relative to control; settings: MDA-MB-231, 48 h, read-out: Activity
NCI-H23 [12] = experiment: Cytotoxicity against human NCI-H23 cells assessed as cell growth at 100 uM after 48 hrs by SRB assay relative to control; settings: NCI-H23, 48 h, read-out: Activity
OVCAR-3 = experiment: Cytotoxicity against human OVCAR3 cells assessed as cell growth at 100 uM after 48 hrs by SRB assay relative to control; settings: OVCAR-3, 48 h, read-out: Activity
OVCAR-5 [13] = experiment: Cytotoxicity against human OVCAR5 cells assessed as cell growth at 100 uM after 48 hrs by SRB assay relative to control; settings: OVCAR-5, 48 h, read-out: Activity
UO-31 [14] = experiment: Cytotoxicity against human UO31 cells assessed as cell growth at 100 uM after 48 hrs by SRB assay relative to control; settings: UO-31, 48 h, read-out: Activity
DU-145 = experiment: Cytotoxicity against human DU145 cells assessed as cell growth at 100 uM after 48 hrs by SRB assay relative to control; settings: DU-145, 48 h, read-out: Activity
MCF7 = experiment: Cytotoxicity against human MCF7 cells assessed as cell growth at 100 uM after 48 hrs by SRB assay relative to control; settings: MCF7, 48 h, read-out: Activity
HCC 2998 [15] = experiment: Cytotoxicity against human HCC2998 cells after 48 hrs by SRB assay; settings: HCC 2998, 48 h
HCT-116 = experiment: Cytotoxicity against human HCT116 cells after 48 hrs by SRB assay; settings: HCT-116, 48 h
UACC-257 [16] = experiment: Cytotoxicity against human UACC257 cells after 48 hrs by SRB assay; settings: UACC-257, 48 h

SMILES: Cn1cc(C2=C(c3cn(C)c4ncccc34)C(=O)NC2=O)c2ccccc21
- growth at 0.01 µM (HOP-62): 110%
- growth at 0.01 µM (HCC 2998 [1]): 103%
- growth at 0.01 µM (SK-OV-3): 104%
- growth at 0.1 µM (A549): 94%
- growth at 0.1 µM (NCI-H23 [2]): 95%
- growth at 0.1 µM (UACC-257 [3]): 103%
- growth at 0.1 µM (UACC-62): 97%
- growth at 0.1 µM (RXF 393 [4]): 98%
- growth at 0.1 µM (SN12C [5]): 87%
- growth at 0.1 µM (UO-31 [6]): 89%
- growth at 0.1 µM (BT-549): 98%
- growth at 1 µM (NCI-H522): 93%
- growth at 1 µM (KM12): 82%
- growth at 1 µM (SF-268): 101%
- growth at 1 µM (SF-539): 86%
- growth at 1 µM (SNB-75): 32%
- growth at 1 µM (LOX IMVI): 74%
- growth at 1 µM (M14): 110%
- growth at 1 µM (MDA-MB-435): 40%
- growth at 1 µM (UACC-257 [7]): 112%
- growth at 1 µM (OVCAR-5 [8]): 103%
- growth at 1 µM (786-0): 98%
- growth at 1 µM (ACHN): 87%
- growth at 1 µM (RXF 393 [9]): 83%
- growth at 1 µM (SN12C [10]): 76%
- growth at 1 µM (TK-10): 87%
- growth at 1 µM (UO-31 [11]): 75%
- growth at 1 µM (MDA-MB-231): 79%
- growth at 100 µM (NCI-H23 [12]): -40%
- growth at 100 µM (OVCAR-3): -19%
- growth at 100 µM (OVCAR-5 [13]): -15%
- growth at 100 µM (UO-31 [14]): -17%
- growth at 100 µM (DU-145): -28%
- growth at 100 µM (MCF7): -15%
- GI50 (HCC 2998 [15]): 4.35 µM
- TGI (HCC 2998 [15]): 28.2 µM
- GI50 (HCT-116): 3.24 µM
- TGI (HCT-116): 30.2 µM
- GI50 (UACC-257 [16]): 6.32 µM
- TGI (UACC-257 [16]): 54.8 µM

SMILES: N#CCCCCCn1cc(C2=C(c3cn(CCCCCC#N)c4ccccc34)C(=O)N(O)C2=O)c2ccccc21
- growth at 0.01 µM (HOP-62): 94%
- growth at 0.01 µM (HCC 2998 [1]): 98%
- growth at 0.01 µM (SK-OV-3): 98%
- growth at 0.1 µM (A549): 102%
- growth at 0.1 µM (NCI-H23 [2]): 90%
- growth at 0.1 µM (UACC-257 [3]): 100%
- growth at 0.1 µM (UACC-62): 94%
- growth at 0.1 µM (RXF 393 [4]): 102%
- growth at 0.1 µM (SN12C [5]): 94%
- growth at 0.1 µM (UO-31 [6]): 66%
- growth at 0.1 µM (BT-549): 92%
- growth at 1 µM (NCI-H522): 85%
- growth at 1 µM (KM12): 102%
- growth at 1 µM (SF-268): 99%
- growth at 1 µM (SF-539): 93%
- growth at 1 µM (SNB-75): 80%
- growth at 1 µM (LOX IMVI): 71%
- growth at 1 µM (M14): 89%
- growth at 1 µM (MDA-MB-435): 96%
- growth at 1 µM (UACC-257 [7]): 97%
- growth at 1 µM (OVCAR-5 [8]): 91%
- growth at 1 µM (786-0): 100%
- growth at 1 µM (ACHN): 88%
- growth at 1 µM (RXF 393 [9]): 98%
- growth at 1 µM (SN12C [10]): 93%
- growth at 1 µM (TK-10): 107%
- growth at 1 µM (UO-31 [11]): 59%
- growth at 1 µM (MDA-MB-231): 82%
- growth at 100 µM (NCI-H23 [12]): 1%
- growth at 100 µM (OVCAR-3): -34%
- growth at 100 µM (OVCAR-5 [13]): 18%
- growth at 100 µM (UO-31 [14]): -1%
- growth at 100 µM (DU-145): 12%
- growth at 100 µM (MCF7): -14%
- GI50 (HCC 2998 [15]): 14.2 µM
- LC50 (HCC 2998 [15]): > 100 µM
- TGI (HCC 2998 [15]): > 100 µM
- GI50 (HCT-116): 4.17 µM
- LC50 (HCT-116): > 100 µM
- TGI (HCT-116): 37.8 µM
- GI50 (UACC-257 [16]): 12.1 µM
- LC50 (UACC-257 [16]): > 100 µM
- TGI (UACC-257 [16]): 55.6 µM
